Measurements: publication PMC5889476 (Biochimie Open, 2015)

T1: rFKBP22 (E. coli FKBP22) (Escherichia coli, UniProt P0A9L3, I65P)
T1 sequence (P0A9L3 1-206 I65P): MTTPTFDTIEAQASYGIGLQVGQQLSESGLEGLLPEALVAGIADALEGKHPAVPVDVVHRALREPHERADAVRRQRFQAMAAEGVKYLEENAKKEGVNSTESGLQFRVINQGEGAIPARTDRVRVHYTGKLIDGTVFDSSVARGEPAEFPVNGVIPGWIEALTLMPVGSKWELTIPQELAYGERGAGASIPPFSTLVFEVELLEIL

T2: rFKBP22 (E. coli FKBP22) (Escherichia coli, UniProt P0A9L3, V72P)
T2 sequence (P0A9L3 1-206 V72P): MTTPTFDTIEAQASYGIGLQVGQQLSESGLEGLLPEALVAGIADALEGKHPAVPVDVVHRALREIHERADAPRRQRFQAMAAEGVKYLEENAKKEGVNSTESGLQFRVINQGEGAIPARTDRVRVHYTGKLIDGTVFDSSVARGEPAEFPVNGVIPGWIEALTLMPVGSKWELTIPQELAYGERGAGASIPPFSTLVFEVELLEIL

T3: rFKBP22 (E. coli FKBP22) (Escherichia coli, UniProt P0A9L3)
T3 sequence (P0A9L3 1-206): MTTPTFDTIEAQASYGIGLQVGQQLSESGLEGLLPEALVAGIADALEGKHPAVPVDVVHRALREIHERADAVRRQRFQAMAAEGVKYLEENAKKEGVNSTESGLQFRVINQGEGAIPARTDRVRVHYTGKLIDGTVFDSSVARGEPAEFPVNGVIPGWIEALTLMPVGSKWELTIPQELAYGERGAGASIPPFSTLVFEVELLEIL

T4: rFKBP22 (E. coli FKBP22) (Escherichia coli, UniProt P0A9L3, A82P)
T4 sequence (P0A9L3 1-206 A82P): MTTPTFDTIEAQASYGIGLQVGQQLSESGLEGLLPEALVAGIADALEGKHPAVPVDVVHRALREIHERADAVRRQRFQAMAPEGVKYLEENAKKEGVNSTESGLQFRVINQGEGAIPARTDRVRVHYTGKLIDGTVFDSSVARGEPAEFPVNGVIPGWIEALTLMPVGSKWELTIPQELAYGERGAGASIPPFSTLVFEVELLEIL


What was measured:
rFKBP22 (E. coli FKBP22) [1] = target: T1, rFKBP22 (E. coli FKBP22); test: tryptophan fluorescence quenching titration; type: binding
rFKBP22 (E. coli FKBP22) [2] = target: T2, rFKBP22 (E. coli FKBP22); test: tryptophan fluorescence quenching titration; type: binding
rFKBP22 (E. coli FKBP22) [3] = target: T3, rFKBP22 (E. coli FKBP22); test: tryptophan fluorescence quenching titration; type: binding
rFKBP22 (E. coli FKBP22) [4] = target: T4, rFKBP22 (E. coli FKBP22); test: tryptophan fluorescence quenching titration; type: binding
cross-linking = target: the molecule itself; test: cross-linking

Kd (rFKBP22 (E. coli FKBP22) [1]) [µM] | Kd (rFKBP22 (E. coli FKBP22) [2]) [µM] | Kd (rFKBP22 (E. coli FKBP22) [3]) [µM] | Kd (rFKBP22 (E. coli FKBP22) [4]) [µM] | Molecule | stoichiometry N (cross-linking)
5.06 ± 0.38 | 5.51 ± 0.26 | 5.43 ± 0.57 | 5.41 ± 0.31 | CO[C@H]1C[C@@H]2CC[C@@H](C)[C@@](O)(O2)C(=O)C(=O)N2CCCC[C@H]2C(=O)O[C@H]([C@H](C)C[C@@H]2CC[C@@H](O)[C@H](OC)C2)CC(=O)[C@H](C)/C=C(\C)[C@@H](O)[C@@H](OC)C(=O)[C@H](C)C[C@H](C)/C=C/C=C/C=C/1C [rapamycin] | 
 |  |  |  | V72P, a rFKBP22 variant with a Val to Pro substitution at position 72 in the helix α3 (enzyme, Escherichia coli, UniProt P0A9L3 1-206, looked up) MTTPTFDTIEAQASYGIGLQVGQQLSESGLEGLLPEALVAGIADALEGKHPAVPVDVVHRALREIHERADAPRRQRFQAMAAEGVKYLEENAKKEGVNSTESGLQFRVINQGEGAIPARTDRVRVHYTGKLIDGTVFDSSVARGEPAEFPVNGVIPGWIEALTLMPVGSKWELTIPQELAYGERGAGASIPPFSTLVFEVELLEIL | 2
 |  |  |  | A82P, a rFKBP22 derivative harboring an Ala to Pro change at position 82 in the helix α3 (enzyme, Escherichia coli, UniProt P0A9L3 1-206, looked up) MTTPTFDTIEAQASYGIGLQVGQQLSESGLEGLLPEALVAGIADALEGKHPAVPVDVVHRALREIHERADAVRRQRFQAMAPEGVKYLEENAKKEGVNSTESGLQFRVINQGEGAIPARTDRVRVHYTGKLIDGTVFDSSVARGEPAEFPVNGVIPGWIEALTLMPVGSKWELTIPQELAYGERGAGASIPPFSTLVFEVELLEIL | 2
